Assay: skin permeability, static Franz diffusion cells
Type: in vitro ADME, pig
Conditions: for permeation of epidermis: 6 h experiment, donor 0.1 mg/mL; for recovery at 6 h, 0.1 mg/mL: pig; for recovery at 6 h, 0.1 mg/mL / amount in receptor fluid after 6 h (%) / amount on/in skin (%) / recovery (%): w/w %; for recovery at 6 h, 0.1 mg/mL / recovery (%): sum of receptor compartment after 6 h and overnight skin extraction; for amount on/in skin (%): overnight skin extraction after 6 h
Description: For the permeability experiments, ultra-performance liquid chromatography-electrospray ionization tandem mass spectroscopy (UPLC)-ESI-MS/MS analysis was carried out using a Xevo TQ-S micro triple quadrupole mass spectrometer equipped with an electrospray interface and coupled to an Acquity UPLC H-Class Plus system from Waters. Separation was achieved on an ACE Excel C18-PFP column (75 × 2.1 mm, 1.7 μm) from Advanced Chromatography Technologies Ltd. (Aberdeen, Scotland). Mobile phase A consisted of 0.1% formic acid and 5% acetonitrile in water, whereas mobile phase B consisted of 0.1% formic acid and 5% water in acetonitrile. The gradient program used was as follows: 20% B (0–2 min), 20–80% B (2–9 min), 80–95% B (9–9.1 min), 95% B (9.1–12 min), 95–20% B (12–12.1 min), 20% B (12.1–15 min). The flow rate was set to 0.3 mL/min and the injection volume was 2 μL. Analysis was performed in positive ionization mode using a Multiple Reaction Monitoring (MRM) method. The optimal parameters were capillary voltage 1.5 (kV), desolvation temperature 650 °C, desolvation gas 850 L/h, and cone 100 L/h.
The Franz diffusion cell experiment was based on the OECD Test Guidelines.[35] Static Franz diffusion cells equipped with pig ex vivo epidermis were used to assess the permeability of isosorbide bis-epoxides 2 and 3. Freshly cut pig ears were received frozen and stored at −20 °C until used for permeability assessment. One day before the experiment, the ears were transferred at +4 °C and allowed to thaw. The ears were then washed, shaved, and carefully cut with a Watson Dermatome skin graft knife to obtain 0.1 mm pieces of the epidermis layer. The integrity of the skin (transparent and intact) was determined by ocular inspection. Thereafter, the epidermis layer was cut and positioned between the donor and receptor compartment of each Franz cell. The receptor compartments were filled with 5 mL of ethanol/PBS (1:1) and equipped with a small magnetic stir bar to ensure mixing while maintaining a constant temperature of the circulating water at 37 °C. To equilibrate the skin, the upper chamber was filled with 0.5 mL of ethanol/PBS (1:1) which was later removed and replaced with the donor solution (50 μL) containing either 2 or 3 (0.1 mg/mL) or DGEBA (0.1 mg/mL) used as a positive control. A procedural blank containing only 50 μL of ethanol/PBS (1:1) in the donor compartment was also included in the experimental setup. Samples of 100 μL were collected after 0–2 min, 1, 2, 3, 4, 5, and 6 h. At each timepoint, a sample aliquot was removed and 100 μL of ethanol/PBS (1:1) was added to the receptor compartment to keep the volume constant. After 6 h, the skin from each Franz cell was extracted overnight in 5 mL of ethanol/PBS (1,1). Triplicate experiments were performed for each compound. The obtained samples were analyzed with UPLC-ESI-MS/MS (see Figure S2 for parameters) and quantification was based on external calibration curves. The limit of quantification (LOQ) was determined by the analysis of the analyte at low concentration and was calculated as 10 times the signal-to-noise ratio.

[1] = Extract: skin extracted overnight after 6 h

## O=C(OC1COC2C(OC(=O)c3ccc(CC4CO4)cc3)COC12)c1ccc(CC2CO2)cc1 [Compound 2, (3R,3aR,6S,6aR)-3,6-O-Bis[4-(3,4-epoxypropyl)benzoyl]-1,4:3,6-dianhydro-D-glucitol]
  permeation of epidermis: observed
  recovery at 6 h, 0.1 mg/mL: 48%
  amount in receptor fluid after 6 h (%): 31.7 ± 12.6%
  amount on/in skin (%): 16.1 ± 3.0%
  recovery (%): 47.7 ± 15.6%
[1]
  Average (µM): 0.345 µM
  Average (µg/ml): 0.161 µg/mL
  Replicate 1: 0.203 µg/mL
  Replicate 2: 0.139 µg/mL
  Replicate 3: 0.141 µg/mL
Receptor fluid, timepoint 0 h
  Average (µM): 0 µM
  Average (µg/ml): 0 µg/mL
  Replicate 1 (µg/ml): < LOQ
  Replicate 2 (µg/ml): < LOQ
  Replicate 3 (µg/ml): < LOQ
Receptor fluid, timepoint 1 h
  Average (µM): 0.123 µM
  Average (µg/ml): 0.0574 µg/mL
  Replicate 1: 0.0637 µg/mL
  Replicate 2: 0.0511 µg/mL
Receptor fluid, timepoint 2 h
  Average (µM): 0.490 µM
  Average (µg/ml): 0.228 µg/mL
  Replicate 1: 0.299 µg/mL
  Replicate 2: 0.233 µg/mL
  Replicate 3: 0.154 µg/mL
Receptor fluid, timepoint 3 h
  Average (µM): 0.669 µM
  Average (µg/ml): 0.312 µg/mL
  Replicate 1: 0.437 µg/mL
  Replicate 2: 0.320 µg/mL
  Replicate 3: 0.180 µg/mL
Receptor fluid, timepoint 4 h
  Average (µM): 0.796 µM
  Average (µg/ml): 0.371 µg/mL
  Replicate 1: 0.538 µg/mL
  Replicate 2: 0.362 µg/mL
  Replicate 3: 0.213 µg/mL
Receptor fluid, timepoint 5 h
  Average (µM): 0.721 µM
  Average (µg/ml): 0.336 µg/mL
  Replicate 1: 0.500 µg/mL
  Replicate 2: 0.323 µg/mL
  Replicate 3: 0.186 µg/mL
Receptor fluid, timepoint 6 h
  Average (µM): 0.679 µM
  Average (µg/ml): 0.317 µg/mL
  Replicate 1: 0.474 µg/mL
  Replicate 2: 0.309 µg/mL
  Replicate 3: 0.166 µg/mL

## c1cc(CC2CO2)ccc1CO[C@H]1CO[C@H]2[C@@H]1OC[C@H]2OCc1ccc(CC2CO2)cc1 (stereo partly drawn) [Compound 3, (3R,3aR,6S,6aR)-3,6-O-Bis[4-(3,4-epoxypropyl)benzyl]-1,4:3,6-dianhydro-D-glucitol]
  permeation of epidermis: observed
  recovery at 6 h, 0.1 mg/mL: 25%
  amount in receptor fluid after 6 h (%): 21.7 ± 5.8%
  amount on/in skin (%): 3.2 ± 2.6%
  recovery (%): 24.9 ± 8.4%
[1]
  Average (µM): 0.0736 µM
  Average (µg/ml): 0.0323 µg/mL
  Replicate 1: 0.0650 µg/mL
  Replicate 2: 0.000965 µg/mL
  Replicate 3: 0.0309 µg/mL
Receptor fluid, timepoint 0 h
  Average (µM): 0 µM
  Average (µg/ml): 0 µg/mL
  Replicate 1 (µg/ml): < LOQ
  Replicate 2 (µg/ml): < LOQ
  Replicate 3 (µg/ml): < LOQ
Receptor fluid, timepoint 1 h
  Average (µM): 0.187 µM
  Average (µg/ml): 0.0818 µg/mL
  Replicate 1: 0.0897 µg/mL
  Replicate 2: 0.110 µg/mL
  Replicate 3: 0.0460 µg/mL
Receptor fluid, timepoint 2 h
  Average (µM): 0.465 µM
  Average (µg/ml): 0.204 µg/mL
  Replicate 1: 0.139 µg/mL
  Replicate 2: 0.292 µg/mL
  Replicate 3: 0.180 µg/mL
Receptor fluid, timepoint 3 h
  Average (µM): 0.563 µM
  Average (µg/ml): 0.247 µg/mL
  Replicate 1: 0.191 µg/mL
  Replicate 2: 0.347 µg/mL
  Replicate 3: 0.203 µg/mL
Receptor fluid, timepoint 4 h
  Average (µM): 0.542 µM
  Average (µg/ml): 0.238 µg/mL
  Replicate 1: 0.202 µg/mL
  Replicate 2: 0.309 µg/mL
  Replicate 3: 0.203 µg/mL
Receptor fluid, timepoint 5 h
  Average (µM): 0.539 µM
  Average (µg/ml): 0.236 µg/mL
  Replicate 1: 0.204 µg/mL
  Replicate 2: 0.306 µg/mL
  Replicate 3: 0.198 µg/mL
Receptor fluid, timepoint 6 h
  Average (µM): 0.495 µM
  Average (µg/ml): 0.217 µg/mL
  Replicate 1: 0.165 µg/mL
  Replicate 2: 0.298 µg/mL
  Replicate 3: 0.189 µg/mL

— article PMC9945177, “Nature-Derived Epoxy Resin Monomers with Reduced Sensitizing Capacity—Isosorbide-Based Bis-Epoxides” (Chemical Research in Toxicology, 2023)
